Measured values: paper PMC6154583, “Optimized 4,5-Diarylimidazoles as Potent/Selective Inhibitors of Protein Kinase CK1δ and Their Structural Relation to p38α MAPK” (Molecules : A Journal of Synthetic Chemistry and Natural …, 2017)

How the values were obtained:
ASK1 = ASK1 (Homo sapiens, UniProt Q99683); test: ProQinase 33PanQinase selectivity profiling; assay type: biochemical; conditions: 100 nM, relative to control, read-out: Residual activity (%)
CSK = CSK (Homo sapiens, UniProt P41240); test: ProQinase 33PanQinase selectivity profiling; assay type: biochemical; conditions: 100 nM, relative to control, read-out: Residual activity (%)
BUB1B = target: T1, BUB1B (Homo sapiens, UniProt O60566); test: ProQinase 33PanQinase selectivity profiling; assay type: biochemical; conditions: 100 nM, relative to control, read-out: Residual activity (%)
T1 construct: purchased ProQinase GmbH

CDK1/CycB1 = CDK1/CycB1 (Homo sapiens, UniProt P06493); test: ProQinase 33PanQinase selectivity profiling; assay type: biochemical; conditions: 100 nM, relative to control, read-out: Residual activity (%)
CDK6/CycD3 = CDK6/CycD3 (Homo sapiens, UniProt Q00534); test: ProQinase 33PanQinase selectivity profiling; assay type: biochemical; conditions: 100 nM, relative to control, read-out: Residual activity (%)
ACK1 = target: T2, ACK1 (Homo sapiens, UniProt Q07912); test: ProQinase 33PanQinase selectivity profiling; assay type: biochemical; conditions: 100 nM, relative to control, read-out: Residual activity (%)
T2 construct: purchased ProQinase GmbH (Freiburg, Germany)

Colo357 cells = test: MTT viability assay; assay type: cell-based, human; conditions: Homo sapiens, COLO357, 48 h incubation, mean ± SD, n = 3
Method: (§1) The human pancreatic cancer cell lines Colo357 [61], Panc-1 [62], and MiaPaCa-2 [63] were grown in Dulbecco’s modified Eagle’s medium (DMEM). Panc89 [64] was grown in DMEM:RPMI-1640 medium in ratio 1:1. The human colon adenocarcinoma cell line HT-29 [65] was grown in McCoy’s 5A medium. All media were supplemented with 10% fetal calf serum (FCS), 100 units·mL^−1 penicillin, 100 µg∙mL^−1 streptomycin and 2 mM glutamine. All cells were grown at 37 °C in a humidified 5% carbon dioxide atmosphere.
(§2) In order to determine the cytotoxic effects of investigated inhibitors conventional MTT assay were used. 1 × 10^4 cells∙well^−1 were seeded in 96-well cell culture plates and cultivated for 24 h. Cell lines were exposed to increasing concentrations of the indicated inhibitor compounds, with untreated and DMSO-treated cells serving as control. After an incubation period of 48 h 10 µL of MTT solution (5 mg∙mL^−1 in PBS) were added and cells were incubated for 4 h. MTT-containing medium was carefully removed and 100 µL acidic isopropanol (0.04 N HCl in isopropanol) per well were added. For dissolution of formazan crystals plates were shaken for 30 min on an orbital shaker in the dark. Finally, dissolved crystals were measured spectrophotometrically at […]. All experiments were performed in triplicate with four technical replicates per assay. Results were normalized considering the mean optical density value of control wells as 100%. GraphPad Prism 6 (La Jolla, CA, USA) software was used to calculate EC50 values.

Panc89 cells = test: MTT viability assay; assay type: cell-based, human; conditions: Homo sapiens, 48 h incubation, mean ± SD, n = 3
Method: as §1, §2

EIF2AK3 = target: T3, EIF2AK3 (Homo sapiens, UniProt Q9NZJ5); test: ProQinase 33PanQinase selectivity profiling; assay type: biochemical; conditions: 100 nM, relative to control, read-out: Residual activity (%)
T3 construct: purchased ProQinase GmbH

CK1-alpha1 = CK1-alpha1 (Homo sapiens, UniProt P48729); test: ProQinase 33PanQinase selectivity profiling; assay type: biochemical; conditions: 100 nM, relative to control, read-out: Residual activity (%)
Aurora-B = Aurora-B (Homo sapiens, UniProt Q96GD4); test: ProQinase 33PanQinase selectivity profiling; assay type: biochemical; conditions: 100 nM, relative to control, read-out: Residual activity (%)
CDC42BPA = target: T4, CDC42BPA (Homo sapiens, UniProt Q5VT25); test: ProQinase 33PanQinase selectivity profiling; assay type: biochemical; conditions: 100 nM, relative to control, read-out: Residual activity (%)
T4 construct: purchased ProQinase GmbH

CDK2/CycE1 = CDK2/CycE1 (Homo sapiens, UniProt P24941); test: ProQinase 33PanQinase selectivity profiling; assay type: biochemical; conditions: 100 nM, relative to control, read-out: Residual activity (%)
DYRK4 = DYRK4 (Homo sapiens, UniProt Q9NR20); test: biochemical; conditions: read-out: Residual activity (%)
EPHA3 = EPHA3 (Homo sapiens, UniProt P29320); test: ProQinase 33PanQinase selectivity profiling; assay type: biochemical; conditions: 100 nM, relative to control, read-out: Residual activity (%)
EPHA1 = EPHA1 (Homo sapiens, UniProt P21709); test: ProQinase 33PanQinase selectivity profiling; assay type: biochemical; conditions: 100 nM, relative to control, read-out: Residual activity (%)
ALK (GST-HIS-tag) = target: T5, ALK (GST-HIS-tag) (Homo sapiens, UniProt Q9UM73); test: ProQinase 33PanQinase selectivity profiling; assay type: biochemical; conditions: 100 nM, relative to control, read-out: Residual activity (%)
T5 construct: GST; HIS; purchased ProQinase GmbH (Freiburg, Germany)

CLK3 = target: T6, CLK3 (Homo sapiens, UniProt P49761); test: ProQinase 33PanQinase selectivity profiling; assay type: biochemical; conditions: 100 nM, relative to control, read-out: Residual activity (%)
T6 construct: purchased ProQinase GmbH

DAPK3 = DAPK3 (Homo sapiens, UniProt O43293); test: ProQinase 33PanQinase selectivity profiling; assay type: biochemical; conditions: 100 nM, relative to control, read-out: Residual activity (%)
LCK = LCK (Homo sapiens, UniProt P06239); test: ProQinase 33PanQinase selectivity profiling; assay type: biochemical; conditions: 100 nM, relative to control, read-out: residual activity
CDK1/CycE1 = CDK1/CycE1 (Homo sapiens, UniProt P06493); test: ProQinase 33PanQinase selectivity profiling; assay type: biochemical; conditions: 100 nM, relative to control, read-out: Residual activity (%)
CAMK2G = CAMK2G (Homo sapiens, UniProt Q13555); test: ProQinase 33PanQinase selectivity profiling; assay type: biochemical; conditions: 100 nM, relative to control, read-out: Residual activity (%)
BRK = target: T7, BRK (Homo sapiens, UniProt Q13882); test: ProQinase 33PanQinase selectivity profiling; assay type: biochemical; conditions: 100 nM, relative to control, read-out: Residual activity (%)
T7 construct: purchased ProQinase GmbH

EGF-R = EGF-R (Homo sapiens, UniProt P00533); test: ProQinase 33PanQinase selectivity profiling; assay type: biochemical; conditions: 100 nM, relative to control, read-out: Residual activity (%)
ACV-R2A = target: T8, ACV-R2A (Homo sapiens, UniProt P27037); test: ProQinase 33PanQinase selectivity profiling; assay type: biochemical; conditions: 100 nM, relative to control, read-out: Residual activity (%)
T8 construct: purchased ProQinase GmbH (Freiburg, Germany)

CAMK2D = CAMK2D (Homo sapiens, UniProt Q13557); test: ProQinase 33PanQinase selectivity profiling; assay type: biochemical; conditions: 100 nM, relative to control, read-out: Residual activity (%)
CDK1/CycA2 = CDK1/CycA2 (Homo sapiens, UniProt P06493); test: ProQinase 33PanQinase selectivity profiling; assay type: biochemical; conditions: 100 nM, relative to control, read-out: Residual activity (%)
DNA-PK = DNA-PK (Homo sapiens, UniProt P78527); test: ProQinase 33PanQinase selectivity profiling; assay type: biochemical; conditions: 100 nM, relative to control, read-out: Residual activity (%)
CLK4 = CLK4 (Homo sapiens, UniProt Q9HAZ1); test: ProQinase 33PanQinase selectivity profiling; assay type: biochemical; conditions: 100 nM, relative to control, read-out: Residual activity (%)
CAMK2A = CAMK2A (Homo sapiens, UniProt Q9UQM7); test: ProQinase 33PanQinase selectivity profiling; assay type: biochemical; conditions: 100 nM, relative to control, read-out: Residual activity (%)
ACV-R2B = target: T9, ACV-R2B (Homo sapiens, UniProt Q13705); test: ProQinase 33PanQinase selectivity profiling; assay type: biochemical; conditions: 100 nM, relative to control, read-out: Residual activity (%)
T9 construct: purchased ProQinase GmbH (Freiburg, Germany)

DAPK2 = DAPK2 (Homo sapiens, UniProt Q9UIK4); test: ProQinase 33PanQinase selectivity profiling; assay type: biochemical; conditions: 100 nM, relative to control, read-out: Residual activity (%)
AXL = target: T10, AXL (Homo sapiens, UniProt P30530); test: ProQinase 33PanQinase selectivity profiling; assay type: biochemical; conditions: 100 nM, relative to control, read-out: Residual activity (%)
T10 construct: purchased ProQinase GmbH (Freiburg, Germany)

DDR2 = DDR2 (Homo sapiens, UniProt Q16832); test: ProQinase 33PanQinase selectivity profiling; assay type: biochemical; conditions: 100 nM, relative to control, read-out: Residual activity (%)
Chain of DDR2 (Q16832 22-855): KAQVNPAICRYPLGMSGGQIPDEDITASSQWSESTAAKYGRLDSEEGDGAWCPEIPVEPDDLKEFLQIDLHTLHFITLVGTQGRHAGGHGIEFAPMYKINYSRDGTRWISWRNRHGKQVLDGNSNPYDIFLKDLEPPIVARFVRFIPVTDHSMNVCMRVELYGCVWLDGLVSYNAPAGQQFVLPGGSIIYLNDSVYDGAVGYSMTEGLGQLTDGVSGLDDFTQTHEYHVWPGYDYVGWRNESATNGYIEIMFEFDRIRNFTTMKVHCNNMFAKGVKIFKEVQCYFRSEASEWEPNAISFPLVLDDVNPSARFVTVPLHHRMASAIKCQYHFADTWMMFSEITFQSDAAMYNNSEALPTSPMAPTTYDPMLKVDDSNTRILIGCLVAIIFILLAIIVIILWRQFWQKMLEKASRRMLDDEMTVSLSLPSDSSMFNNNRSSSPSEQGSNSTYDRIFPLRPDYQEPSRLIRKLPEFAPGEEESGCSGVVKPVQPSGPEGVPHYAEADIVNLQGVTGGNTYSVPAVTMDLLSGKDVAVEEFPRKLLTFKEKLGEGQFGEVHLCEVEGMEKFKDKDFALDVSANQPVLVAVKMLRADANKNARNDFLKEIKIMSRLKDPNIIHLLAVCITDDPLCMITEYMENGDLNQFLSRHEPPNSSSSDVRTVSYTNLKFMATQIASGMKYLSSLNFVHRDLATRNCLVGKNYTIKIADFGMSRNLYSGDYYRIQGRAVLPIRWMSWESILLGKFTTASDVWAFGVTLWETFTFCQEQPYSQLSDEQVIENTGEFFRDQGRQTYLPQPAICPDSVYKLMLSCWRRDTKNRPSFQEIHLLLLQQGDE

Chain of CAMK2G (Q13555 whole entry): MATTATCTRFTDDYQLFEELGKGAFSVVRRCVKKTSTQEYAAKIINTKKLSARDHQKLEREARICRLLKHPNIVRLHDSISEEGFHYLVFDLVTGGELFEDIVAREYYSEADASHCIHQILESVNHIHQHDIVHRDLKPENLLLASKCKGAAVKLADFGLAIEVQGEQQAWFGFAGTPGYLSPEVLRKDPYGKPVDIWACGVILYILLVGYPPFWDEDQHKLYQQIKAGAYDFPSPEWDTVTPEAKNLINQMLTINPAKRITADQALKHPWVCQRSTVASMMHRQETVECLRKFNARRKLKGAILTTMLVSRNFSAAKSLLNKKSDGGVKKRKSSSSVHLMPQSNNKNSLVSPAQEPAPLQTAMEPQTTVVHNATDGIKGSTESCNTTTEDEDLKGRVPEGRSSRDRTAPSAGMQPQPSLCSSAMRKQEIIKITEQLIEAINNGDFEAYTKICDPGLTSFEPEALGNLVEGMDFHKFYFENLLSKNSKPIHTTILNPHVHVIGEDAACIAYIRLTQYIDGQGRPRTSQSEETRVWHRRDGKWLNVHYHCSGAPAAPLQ
Chain of EPHA1 (P21709 26-976): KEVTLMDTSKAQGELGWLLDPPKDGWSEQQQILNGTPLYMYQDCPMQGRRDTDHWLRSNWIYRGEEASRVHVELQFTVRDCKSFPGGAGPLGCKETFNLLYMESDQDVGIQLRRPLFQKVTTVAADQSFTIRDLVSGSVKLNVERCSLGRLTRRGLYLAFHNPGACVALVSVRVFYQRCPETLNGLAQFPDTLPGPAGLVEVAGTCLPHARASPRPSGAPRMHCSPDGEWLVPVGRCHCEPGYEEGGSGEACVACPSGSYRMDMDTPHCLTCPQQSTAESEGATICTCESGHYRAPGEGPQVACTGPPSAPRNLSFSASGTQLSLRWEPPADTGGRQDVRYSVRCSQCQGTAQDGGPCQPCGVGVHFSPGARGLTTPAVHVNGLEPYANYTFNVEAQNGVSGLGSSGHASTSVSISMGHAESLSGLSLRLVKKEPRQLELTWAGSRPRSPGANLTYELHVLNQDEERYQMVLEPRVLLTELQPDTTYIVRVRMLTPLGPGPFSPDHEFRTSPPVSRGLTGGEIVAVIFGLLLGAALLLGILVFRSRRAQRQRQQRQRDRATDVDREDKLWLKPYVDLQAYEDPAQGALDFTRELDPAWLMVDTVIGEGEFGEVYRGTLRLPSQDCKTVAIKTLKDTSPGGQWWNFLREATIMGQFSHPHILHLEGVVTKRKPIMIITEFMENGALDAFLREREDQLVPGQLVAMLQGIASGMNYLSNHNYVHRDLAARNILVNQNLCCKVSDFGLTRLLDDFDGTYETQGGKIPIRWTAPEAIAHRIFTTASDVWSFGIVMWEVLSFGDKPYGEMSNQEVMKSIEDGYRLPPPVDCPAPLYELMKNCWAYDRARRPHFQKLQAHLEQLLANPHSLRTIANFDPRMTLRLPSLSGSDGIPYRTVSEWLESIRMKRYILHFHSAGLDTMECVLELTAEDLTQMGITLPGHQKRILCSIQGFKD
Chain of CSK (P41240 whole entry): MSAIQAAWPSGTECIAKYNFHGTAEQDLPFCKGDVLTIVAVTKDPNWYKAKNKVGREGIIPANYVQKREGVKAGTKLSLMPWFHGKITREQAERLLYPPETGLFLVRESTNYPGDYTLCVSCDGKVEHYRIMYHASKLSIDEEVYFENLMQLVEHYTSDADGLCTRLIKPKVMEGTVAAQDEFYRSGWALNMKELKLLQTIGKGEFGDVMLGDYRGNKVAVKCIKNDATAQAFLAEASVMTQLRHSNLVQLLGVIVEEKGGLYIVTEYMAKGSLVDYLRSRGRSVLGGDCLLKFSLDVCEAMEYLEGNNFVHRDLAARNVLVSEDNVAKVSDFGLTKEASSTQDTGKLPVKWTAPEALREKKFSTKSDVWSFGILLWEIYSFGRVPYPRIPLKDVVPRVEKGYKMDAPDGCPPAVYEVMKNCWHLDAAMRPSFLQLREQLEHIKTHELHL
Chain of CDK1/CycB1 (P06493 whole entry): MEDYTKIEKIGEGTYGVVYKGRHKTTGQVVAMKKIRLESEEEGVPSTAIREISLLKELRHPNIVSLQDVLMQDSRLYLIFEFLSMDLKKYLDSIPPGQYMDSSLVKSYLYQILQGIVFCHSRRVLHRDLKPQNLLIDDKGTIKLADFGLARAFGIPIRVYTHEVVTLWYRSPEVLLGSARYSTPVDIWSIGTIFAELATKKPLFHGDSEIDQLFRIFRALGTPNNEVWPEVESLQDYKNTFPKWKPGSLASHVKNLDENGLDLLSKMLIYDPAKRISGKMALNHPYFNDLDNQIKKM
Chain of CDK1/CycB1 (P14635 whole entry partner): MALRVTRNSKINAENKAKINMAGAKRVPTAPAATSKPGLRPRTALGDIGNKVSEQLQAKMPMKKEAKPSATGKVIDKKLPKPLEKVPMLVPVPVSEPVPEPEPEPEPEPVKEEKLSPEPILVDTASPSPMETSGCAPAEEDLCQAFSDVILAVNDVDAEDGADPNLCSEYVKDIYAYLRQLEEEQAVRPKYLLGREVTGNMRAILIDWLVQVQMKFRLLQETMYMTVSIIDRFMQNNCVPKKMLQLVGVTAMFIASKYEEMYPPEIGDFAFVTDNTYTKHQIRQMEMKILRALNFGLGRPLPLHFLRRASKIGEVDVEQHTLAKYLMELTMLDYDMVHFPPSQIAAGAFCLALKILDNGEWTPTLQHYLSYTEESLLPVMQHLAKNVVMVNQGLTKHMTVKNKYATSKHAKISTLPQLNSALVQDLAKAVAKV
Chain of CDK1/CycA2 (P06493 whole entry): as the sequence (P06493 whole entry) above
Chain of CDK1/CycA2 (P20248 whole entry partner): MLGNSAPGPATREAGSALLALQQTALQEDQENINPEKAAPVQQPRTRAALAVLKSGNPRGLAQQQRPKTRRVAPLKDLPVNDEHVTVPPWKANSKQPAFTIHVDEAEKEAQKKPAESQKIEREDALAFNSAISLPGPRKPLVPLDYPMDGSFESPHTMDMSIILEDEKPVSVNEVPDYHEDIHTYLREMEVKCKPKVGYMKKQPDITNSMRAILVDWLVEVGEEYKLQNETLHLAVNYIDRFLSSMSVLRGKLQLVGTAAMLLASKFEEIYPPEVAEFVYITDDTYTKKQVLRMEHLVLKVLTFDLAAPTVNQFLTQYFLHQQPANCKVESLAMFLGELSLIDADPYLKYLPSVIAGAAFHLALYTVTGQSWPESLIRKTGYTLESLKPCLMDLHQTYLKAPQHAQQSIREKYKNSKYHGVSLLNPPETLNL
Chain of LCK (P06239 whole entry): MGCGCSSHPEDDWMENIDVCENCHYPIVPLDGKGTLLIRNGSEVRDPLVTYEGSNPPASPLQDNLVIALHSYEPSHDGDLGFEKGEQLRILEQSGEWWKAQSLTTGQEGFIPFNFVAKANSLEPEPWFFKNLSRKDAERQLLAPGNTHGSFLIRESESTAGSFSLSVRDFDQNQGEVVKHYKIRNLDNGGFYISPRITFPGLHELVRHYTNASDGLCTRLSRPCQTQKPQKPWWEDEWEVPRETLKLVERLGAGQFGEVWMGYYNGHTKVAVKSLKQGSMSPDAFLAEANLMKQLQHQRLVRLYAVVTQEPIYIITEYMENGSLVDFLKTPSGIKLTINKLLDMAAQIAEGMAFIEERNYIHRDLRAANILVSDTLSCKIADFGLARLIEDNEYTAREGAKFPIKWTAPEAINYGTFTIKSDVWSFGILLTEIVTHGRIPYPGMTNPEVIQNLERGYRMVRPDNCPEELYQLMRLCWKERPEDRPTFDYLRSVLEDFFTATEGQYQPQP

Compound `COc1ccc(OC)c(CCC(=O)Nc2cc(-c3nc(SC)[nH]c3-c3ccc(F)cc3)ccn2)c1` [11b, 3-(2,5-Dimethoxyphenyl)-N-(4-(5-(4-fluorophenyl)-2-(methylthio)-1H-imidazol-4-yl)-pyridin-2-yl)-propanamide] has a remaining activity at 0.1 µM (ASK1) of 93%, a remaining activity at 0.1 µM (CSK) of 101% and a remaining activity at 0.1 µM (BUB1B) of 102%. For the same compound, the remaining activity at 0.1 µM (CDK1/CycB1) was 95%, the remaining activity at 0.1 µM (CDK6/CycD3) was 97% and the remaining activity at 0.1 µM (ACK1) was 96%. For the same compound, the EC50 (Colo357 cells) was 3.5 ± 0.3 µM, the EC50 (Panc89 cells) was 1.5 ± 0.4 µM and the remaining activity at 0.1 µM (EIF2AK3) was 91%. It also gave a remaining activity at 0.1 µM (CK1-alpha1) of 26%, a remaining activity at 0.1 µM (Aurora-B) of 92% and a remaining activity at 0.1 µM (CDC42BPA) of 104%. For the same compound, the remaining activity at 0.1 µM (CDK2/CycE1) was 99%, the remaining activity at 0.1 µM (DYRK4) was 100% and the remaining activity at 0.1 µM (EPHA3) was 97%. The remaining activity at 0.1 µM (EPHA1) was 104%, the remaining activity at 0.1 µM (ALK (GST-HIS-tag)) was 114% and the remaining activity at 0.1 µM (CLK3) was 98%. For the same compound, the remaining activity at 0.1 µM (DAPK3) was 85%, the remaining activity at 0.1 µM (LCK) was 26% and the remaining activity at 0.1 µM (CDK1/CycE1) was 97%. It also gave a remaining activity at 0.1 µM (CAMK2G) of 105%, a remaining activity at 0.1 µM (BRK) of 98% and a remaining activity at 0.1 µM (EGF-R) of 113%. For the same compound, the remaining activity at 0.1 µM (ACV-R2A) was 98%, the remaining activity at 0.1 µM (CAMK2D) was 96% and the remaining activity at 0.1 µM (CDK1/CycA2) was 91%. It also gave a remaining activity at 0.1 µM (DNA-PK) of 95%, a remaining activity at 0.1 µM (CLK4) of 95% and a remaining activity at 0.1 µM (CAMK2A) of 95%. It also gave a remaining activity at 0.1 µM (ACV-R2B) of 97%, a remaining activity at 0.1 µM (DAPK2) of 95% and a remaining activity at 0.1 µM (AXL) of 104%. It also gave a remaining activity at 0.1 µM (DDR2) of 101%.
